Reference: article PMC8996404, “The pharmacokinetics of buserelin after intramuscular administration in pigs and cows” (BMC Veterinary Research, 2022)
Like-named read-outs stand apart in the source and are kept apart here.

Key:
[1] = tested on: pyroglutamyl-amino-peptidase; conditions: enzyme can be isolated from mammalian liver ref 2; cited from earlier work
Procedure: (§1) The Vd was 80.49 ± 43.88 L for pigs and 839.88 ± 174.77 L for cows, which is larger than pigs (304 ± 112 mL/kg) at a single dose 1 mg i.v., and dogs (50.1 ± 2.4 mL/kg) at a single dose 5 mg i.v.. High plasma concentration, high bonding rate, means more drugs cannot across the membrane and barrier. Therefore, binding changes can affect the distribution of drugs. Because protein binding of buserelin is about 15% [2], it is proportional to the body volume and body weight and animals using in this study had larger volume of body water or extracellular water. It has been repo ...

[2] = pigs, cited from earlier work
Procedure: as §1

[3] = Plasma pharmacokinetics of buserelin after i.m. administration in cows; assay type: in vivo; conditions: for MRT: cow, 3 mg per cow
Procedure: The UPLC-MS/MS system (Waters Acquity UPLC and Waters Quattro Premier, Waters Co., USA) and the chromatographic column (Agilent Poroshell 120 EC-C18, 4.6 × 100 mm, 2.7 µm) were used in this study. The separation was performed with 0.1% formic acid in water (mobile phase solvent A) and 0.1% formic acid in acetonitrile (solvent B) with a flow rate of 0.6 mL/min. The gradient elution program was optimized as follow: 75% A (0–0.5 min), 10% A (5–7 min) 75% A (7.1–10 min). The sample was injected at a volume of 5 µL at 30℃. The mass spectrometer was operated in the positive ion detection mode with the capillary voltage set at 5.5 kV and the source temperature was 550 ℃. Others parameters were as follows: nebulizer gas pressure was 55 psi, ion source gas pressure was 60 psi, curtain gas pressure was 30 psi, declustering potential was 68 V, entrance potential was 10 V, and collision cell exit potential was 13 V.
Five healthy adult female Danish Landrance × Yorkshire × Duroc pigs (100–120 days, 50–60 kg, Ningbo Kuangdai Husbandry Co., Ltd. Ningbo China) and five healthy adult female Holstein cows (1.5–2 years, 440–500 kg, Ningbo Milk Group Co., Ltd. Ningbo China) were randomly selected to use in this research. All animals were examined by a local veterinarian with regard to physical, hematologic, and biochemical conditions during the two-week adaptation period. The two protocols used in this study were reviewed and approved by the Institutional Animal Care and Use Committee of China Agricultural University (pigs: 11605–20-D-007; cows: 11605–20-B-003). Buserelin injection solution (0.5 mg/mL, 10 mL) was acquired from Ningbo Sansheng Pharmaceutical Company. In order to avoid introducing bias results from feeding, each animal in the study fasted for approximately 12 h. Each pig received 1 mg buserelin injection solution (about 0.018 mg/kg), and each cow received 3 mg (about 0.0064 mg/kg). During the entire experiment, water was available ad libitum. Adverse symptoms were recorded and evaluated. Blood samples of 5 mL were collected into heparinized tube (pigs: anterior vena cava; cows: vena jugularis interna) at 0, 0.083, 0.167, 0.333, 0.5, 0.75, 1, 1.5, 2, 3, 4, 5, 6, 7, and 8 h after i.m. administration. The blood samples were centrifuged for 5 min at 2775 × g. Plasma samples were stored in -20 ℃ until analysis (within 21 days of collection).
Frozen plasma samples were thawed and vortexed, and 500 µL plasma and 1 mL 0.1% formic acid in acetonitrile were mixed together. After 10 min ultrasonic treatment, the samples were centrifuged for 10 min at 11,100 × g. The upper layer was collected and the remainder was treated twice. These two supernatants were added together, the samples were evaporated via nitrogen gas at 40 ℃, and redissolved in 2.5 mL 0.1% formic acid in acetonitrile-0.1% formic acid in water (1:3 v/v). After filtered through a 0.22 µm microbore cellulose membrane, the samples were collected and bottled to UPLC-MS/MS system for analysis.
Plasma concentrations of buserelin were analyzed using the established method, and the pharmacokinetic parameters were calculated via a non-compartmental analysis model 200 in WinNonlin software (WinNolin 8.1.0 Certara, Pharsight, Mountain View, CA, USA) and expressed in mean ± standard deviation (SD), and no statistical tests were applied.

[4] = cited from earlier work
Excerpt: After being approved by the European Medicines Agency (EMA) in 1995 [1], there are some pharmacokinetic studies of buserelin been reported in humans and rats following subcutaneous (s.c.), intranasal (i.n.), or intravenous (i.v.) routes. […] High plasma concentration, high bonding rate, means more drugs cannot across the membrane and barrier. Therefore, binding changes can affect the distribution of drugs. Because protein binding of buserelin is about 15% [2], it is proportional to the body volume and body weight and animals using in this study had larger volume of body water or extracellular water. It has been repo ...

[5] = cited from earlier work; remark: listed apart in the source
Procedure: as §1, with “After being approved by the European Medicines Agency (EMA) in 1995 [1], there are some pharmacokinetic studies of buserelin been reported in humans and rats following subcutaneous (s.c.), intranasal (i.n.), or intravenous (i.v.) routes. […] Regardless of the administration route of buserelin, the elimination of half- ... || The Vd” for “The Vd”

[6] = female, Holstein, im, single i.m. dose 3 mg per cow, plasma, mean ± SD, n = 5
[7] = single i.m. dose 3 mg per cow, plasma, mean ± SD, n = 5

Compound: CCNC(=O)[C@@H]1CCCN1C(=O)[C@H](CCCNC(=N)N)NC(=O)[C@H](CC(C)C)NC(=O)[C@@H](COC(C)(C)C)NC(=O)[C@H](Cc1ccc(O)cc1)NC(=O)[C@H](CO)NC(=O)[C@H](Cc1c[nH]c2ccccc12)NC(=O)[C@H](Cc1cnc[nH]1)NC(=O)[C@@H]1CCC(=O)N1 [buserelin, Buserelin]
- Degradation by pyroglutamyl-amino-peptidase [1]: rapidly degraded
- clearance ([2]; 1 mg per pig i.v. injection, no reference given): 2.0 ± 0.4 mL/min/kg
- Vd ([2]; single dose 1 mg i.v. ref 14): 0.304 ± 0.112 L/kg
- t1/2 ([2]; single dose of 1 mg i.v. injection ref 14): 1.72 ± 0.333 h
- MRT ([3]; female, Holstein, plasma, im, single i.m. dose 3 mg per cow, plasma, mean ± SD, n = 5, read-out: MRT0-t): 1.85 ± 0.56 h
- MRT ([3]; female, Holstein, plasma, im, single i.m. dose 3 mg per cow, plasma, mean ± SD, n = 5, read-out: MRT0-∞): 2.16 ± 0.7 h
- tmax ([3]; female, Holstein, im, single i.m. dose 3 mg per cow (about 0.0064 mg/kg), plasma, UPLC-MS/MS, non-compartmental, mean ± SD, n = 5): 1.05 ± 0.27 h
- AUC(0-t) ([3]; female, Holstein, im, single i.m. dose 3 mg per cow, plasma, 0 to last measurement point, mean ± SD, n = 5): 5.63 ± 1.86 ng·h/mL
- Cmax ([3]; female, Holstein, im, single i.m. dose 3 mg per cow, plasma, UPLC-MS/MS, non-compartmental, mean ± SD, n = 5): 2.68 ± 0.36 ng/mL
- AUC(0-inf) [3, 6]: 5.99 ± 2.01 ng·h/mL
- CL/F [3, 6]: 9080 mL/min
- Vd/F [3, 6]: 840 ± 175 L
- half-life ([3]; female, Holstein, im, single i.m. dose 3 mg per cow, plasma, non-compartmental, mean ± SD, n = 5, read-out: t1/2 (elimination half-time) (converted)): 1.13 ± 0.3 h
- Cmax/D ([3]; single i.m. dose 3 mg per cow (about 0.0064 mg/kg), rate of Cmax to dosage, mean ± SD, n = 5): 420.35 ± 58.40 ng/mL/mg/kg
- Adverse effects ([3]; single i.m. dose 3 mg per cow, n = 5): No adverse effects were observed
- AUMClast [3, 7]: 11.23 ± 6.89 h × h × ng/mL
- ka (absorption rate constant) [3, 7]: 0.58 ± 0.17 h⁻¹
- tmax ([4]; health volunteers, single dose 5 µg s.c. ref 3): 0.7 h
- tmax ([4]; health volunteers, single dose 150 µg i.n. ref 3): 0.967 h
- tmax ([4]; health volunteers, single dose 300 µg i.n. ref 3): 0.73 h
- tmax ([4]; health volunteers, single dose 450 µg i.n. ref 3): 0.647 h
- tmax ([4]; health volunteers, single dose 500 µg i.v. ref 3): 0.333 h
- elimination half-time ([4]; human, regardless of the administration route ref 2, 3): 72 to 120 min
- tmax ([4]; rats (anesthetized), single dose of 0.1 mg/kg i.n. ref 18): 1.92 ± 0.42 h
- rapid initial half time / t1/2 ([4]; rats, i.v. ref 1): 5 min
- t1/2 ([4]; rats, single dose of 6 mg/kg s.c. injection ref 13): 0.7 h
- Protein binding [5]: about 15%
- rapid initial half time / t1/2 ([5]; guinea pigs, i.v. ref 1): 0.2 h
